What was measured:
[1] = tested on: OVA challenged mice; test: Inflammatory cell infiltration into the lung: total and differential BAL cell counts after OVA challenge; assay type: in vivo, C57BL/6 mice; details: Example 8, 0.07% (w/w) in diet; for Reduction in numbers of lymphocytes in BAL / Reduction in numbers of monocytes/macrophages in BAL / Reduction of total BAL cell counts / Suppression of accumulation of eosinophils in BAL: compared to control diet
Protocol: Eight to nine week old male and female C57BL/6 mice (University of Auckland, New Zealand) were kept on an ovalbumin (OVA)-free normal mouse chow diet from weaning up until they were assigned to a particular diet (control or experimental diet). Each diet group (n=6) contained an equal number of male and female mice. Throughout the study period mice were kept in an air-conditioned room with controlled humidity, temperature, and a 12 h light:dark cycle.
(§1) Body weights were determined, and blood samples collected via the tail vein, prior to assignment of mice to particular diets. After two weeks on an assigned diet mice were immunized with two intraperitoneal (i.p.) injections of 20 μg of OVA (chicken egg albumin grade V; Sigma Chemical Co., St Louis, Mo.) complexed with 2 mg of Imject Alum (Al(OH)3/Mg(OH)2; Pierce Rockford Ill.) in a total volume of 100 μl of PBS on days 0 and 14. Two weeks after the 2nd injection mice were anaesthetized by i.p. injection of a mixture of ketamine and xylazine (Phoenix, Auckland, New Zealand), and challenged intranasally with 100 μg of OVA in 50 μl of PBS. Undiseased control mice were immunized and challenged with PBS using a similar regime. Body weights were determined, and blood, bronchoalveolar lavage (BAL) fluid, and lung tissue samples were collected 6 days after the intranasal challenge. Blood was collected by cardiac puncture after deeply anaesthetizing mice by i.p. injection of a mixture of ketamine and xylazine. Serum was separated from blood samples, and stored at −80° C.
Bronchoalveolar lavage was performed immediately after euthanasia by flushing 1 ml of PBS containing 1% heat inactivated fetal calf serum (lavage buffer) thrice through the lung and airways of mice via the cannulated trachea. The recovered BAL was pooled for each animal, centrifuged at 1,500 rpm at 4° C., and the supernatant stored at −80° C. The cell pellets were resuspended in 1 ml of lavage buffer, and total cell numbers were counted using a hemocytometer. BAL cells were centrifuged onto poly-L-lysine-coated glass slides using a cytospin, and stained with Diff-Quik stain (Dade Behring Inc. USA). Differential cellular counts were made by counting ≧300 cells under light microscopy (Nikon E200 microscope), using standard morphological criteria.

[2] = tested on: OVA-specific IgE; test: OVA-specific IgE in serum by ELISA; assay type: in vivo, C57BL/6 mice; details: Table 9; 0.07% (w/w) in diet; OVA challenged mice
Protocol: as §1
(§2) OVA-specific IgG1 in serum samples was measured by standard ELISA employing 96 well microtitre plates (Nunc Maxisorp). Plates were coated with 100 μl of 0.1 M carbonate buffer, pH 9.5, containing 10 μg/ml of OVA (Sigma) overnight at 4° C. After 3 washes with PBS-T (PBS with 0.05% Tween-20) plates were blocked with 200 μl of 3% BSA in PBS, pH 7.2, at room temperature for 90 min. One hundred microlitres of each serum sample (diluted 1:40) was added in triplicate to the wells, and incubated for 2 h at 37° C. Wells were washed four times with PBS-T and 100 μl of goat anti-mouse IgG1-HRP conjugated antibody (Bethyl Laboratories, USA) was added at 1:50,000 dilution. Plates were incubated for 1 h at 37° C., washed 5 times with PBS-T, and 100 μl of peroxidase enzyme substrate o-phenylene diamine (OPD, Sigma Chemical Co, St Louis, Mo.) was added to each well. The colour reaction was stopped after ˜20 min by addition of 50 μl of 4 M H2SO4 to each well. Absorbance was read at 490 nm in a BioRad microplate ELISA reader. Positive and negative sera were used as controls.
OVA-specific IgE was measured as for OVA-specific IgG1 except serum samples were diluted 1:5, and OVA was coated on plates at 100 μg/ml (35). A biotin-conjugated rat anti-mouse IgE monoclonal antibody (diluted 1:200; Pharmingen, San Diego, Calif.) was used to detect OVA-specific IgE antibody, and was detected with avidin-HRP conjugate (diluted 1:250) followed by development with OPD.

[3] = tested on: OVA challenged mice; test: Mucus index score: Schiff staining of airway epithelia; assay type: in vivo, C57BL/6 mice; details: 0.07% (w/w) in diet; for Suppression (inhibition) of mucus production: Example 9, compared to control diet, significance not reached; for Mucus Index Score (Mean ± SEM): Table 7, scale 0-4
Protocol: as §1
(§3) Following BAL, the right lobes of lungs were immediately frozen in dry ice and stored at −80° C. for protein and Western blot analysis. The left lobes of lungs were fixed in 4% paraformaldehyde in 0.1 M PBS (pH 7.4) overnight and embedded either in optimum cutting temperature compound (OCT, Tissue Tek) and kept frozen at −80° C. until cryosectioning for immunohistochemistry, or in paraffin for routine histopathological analysis. Some were stained with a combined hematoxylin-Biebrich Scarlet solution by Luna's method for eosinophils to detect eosinophil granules (34) or with Alcian Blue-Periodic Acid Schiff for the detection of acid and neutral mucins and identification of goblet cells.
The level of Schiff staining of airway epithelia was semi-quantitatively determined to give a mucus index score as described (38), but modified in that Schiff staining was scored by microscopic viewing of airways. A minimum of 4 to 6 representative transversely or sagittally sectioned airways were graded per animal using a scale of 0 (no staining), 1 (25% or less of the airway epithelium stained), 2 (26-50% of the airway epithelium stained), 3 (51-75% of the airway epithelium stained), and 4 ([…]). Airways were analysed only when the complete circumference of the airway could be visualized, and those that opened directly into an alveolar space were not included.

[4] = tested on: OVA challenged mice; test: Histopathology score of lung airway changes; assay type: in vivo, C57BL/6 mice; details: 0.07% (w/w) in diet; for Inhibition of allergen-specific remodelling and inflammation of the lung, in words: Example 10; for Histopathology score (Mean ± SEM): Table 8
Protocol: as §1, §3
The histopathology score was determined from inspection of alcian blue-PAS stained paraffin embedded sections of the left lung of each animal. Lung inflammation, perivascular/peribronchiolar infiltrates, airway epithelial hypertrophy, goblet-cell hyperplasia, constriction of bronchioles, mucin hypersecretion, and beneficial presence of phagocytic macrophages were graded on a scale of 0 (no change) to 4 (marked change). Each animal received an overall histopathology score based on summation of individual scores for each criteria. All slides were scored in a blinded fashion (blinded to diet treatment/group assignment), and scores were presented as the mean±SEM of 4-6 animals/group.

[5] = tested on: OVA-specific IgG1; test: OVA-specific IgG1 in serum by ELISA; assay type: in vivo, C57BL/6 mice; details: Table 10; 0.07% (w/w) in diet; OVA challenged mice
Protocol: as §1, §2

[6] = tested on: liver; details: fed to mice at 0.4% w/w for 4 weeks; cited from earlier work

Row | Compound | Reduction in numbers of lymphocytes in BAL [1] | Reduction in numbers of monocytes/macrophages in BAL [1] | Reduction of total BAL cell counts [1] | Suppression of accumulation of eosinophils in BAL [1] | IgE Values, Average (allergen-specific IgE responses) [2] | Suppression (inhibition) of mucus production [3] | Mucus Index Score (Mean ± SEM) [3] | Inhibition of allergen-specific remodelling and inflammation of the lung, in words [4] | Histopathology score (Mean ± SEM) [4] | Histopathology score (Mean ± SEM) ([4]; listed as free fatty acid form of the c-9, t-11 isomer) | IgG Values, Average (allergen-specific IgG responses) [5] | Effect on the liver, in words [6] | Eosinophil count compared to the control diet, in words [1] | Lymphocyte count compared to the control diet, in words [1] | Monocyte/macrophages count compared to the control diet, in words [1] | Total BAL count compared to the control diet, in words [1]
1 | CCCCCC/C=C/C=C\CCCCCCCC(=O)O (single isomer, unassigned) [Synthetic c-9, t-11 CLA isomer Free fatty acid, c-9, t-11 CLA] | 72% | 61% | 74% | 87% | 0.89 | 32% | 2.04 ± 1.13 | able to significantly inhibit | 2.02 ± 0.66 | 2.02 | 1.91 | – | – | – | – | –
2 | t-10, c-12 CLA [t-10, c-12 CLA isomer, reference compound] | – | – | – | – | – | – | – | not effective | – | – | – | dramatic enlargement of the liver with steatosis | no significant difference | no significant difference | no significant difference | no significant difference
3 | t-10, c-12 CLA [Synthetic t-10, c-12 CLA isomer Triglyceride, reference compound] | – | – | – | – | 1.29 | 15% | 2.57 ± 1.16 | – | 3.20 ± 0.79 | – | 1.98 | – | – | – | – | –
4 | c-9, t-11 CLA [Synthetic c-9, t-11 CLA isomer Triglyceride] | 43% | 53% | 56% | 62% | 1.17 | 15% | 2.58 ± 0.94 | – | 3.08 ± 0.69 | – | 1.96 | – | – | – | – | –
5 | CCCCC/C=C\C=C\CCCCCCCCC(=O)O (single isomer, unassigned) [Synthetic t-10, c-12 CLA isomer Free Fatty Acid, t-10, c-12 CLA, reference compound] | – | – | – | – | 1.25 | 7% | 2.80 ± 1.35 | – | 3.28 ± 0.46 | – | 1.95 | – | – | – | – | –
